These are literature values, as cited in patent publication US11878022B2 (Novitium Pharma LLC, priority 2020, dated 2024).

The conditions of data set [1]: in vivo.
For data set [2] the following is noted: in vivo. The source holds these as a separate data set.

Consider `NS(=O)(=O)c1cc2c(cc1Cl)NCNS2(=O)=O` [Hydrochlorothiazide, 6-Chloro-3,4-dihydro-2H-1,2,4-benzothiadiazine-7-sulfonamide-1,1-dioxide], for which, in data set [1], the “Binding to serum proteins” value is recorded as 40-68%. Further, in data set [1] (po), the “absorbed dose excreted in urine as unchanged drug” value is listed as “greater than 95%”. Besides, in data set [2], the “Onset of action after dosing” value was no more than 2 h, the persistence of activity result is “up to 24 hours” and the “time of peak effect” value is given as “about 4 hours”.
